Measurements as given in patent publication US10351501B2, “Gem difluorocompounds as depigmenting or lightening agents” (TFCHEM, priority 2015, dated 2019).

How the values were obtained:
[1] = In vitro stability: hydroquinone released in various chemical conditions (HPLC-UV/DAD); assay type: physicochemical
Description: The stability of compound 11 was evaluated by the released of hydroquinone, which is a potentially toxic compound, in different chemical conditions (extreme conditions, simulating the application of these molecules on the skin) and it was compared to the deoxyarbutin.
This study involved different tests as degradation test and chemical stability (various chemical solutions, pH and temperatures).
Analytical Method (HPLC-UV/DAD Method)
Column Atlantis dC18 150 mm*4.6 mm*3 μm Waters, 30° C. Injection 50 μl, 25° C. λ: 220 nm, 265 nm, 285 nm. A-Acetonitrile B-Water; 0.8 ml/min; elution gradient: […]
This analytical method gave linear response for compound 11, Deoxyarbutin and Hydroquinone from 25 ng/mL to 1000 ng/mL. Dilution of samples had to be taken into account for each stability study to calculate the LLOQ of each compound.
The tested compounds are incubated in different solutions, at different times (see table 1). Then the analytical method was used to quantify remaining compounds and potential hydroquinone released (as possible degradation of compounds).
Hydroquinone (HQ) apparition is expressed as a percentage of initial compound 11 or Deoxyarbutin. The calculation was done in molar units and the limit of quantification fluctuates with the initial concentration.

human tyrosinase = assay: HumanLike Tyrosinase Assay kit (Feldan), L-Tyrosine to dopachrome, OD at 490 nm; assay type: biochemical; conditions: for OD at 490 nm: 1.12 mM
Description: The efficacy of compound 16 was evaluated by the inhibition of human tyrosinase in tubo and compared to the compound 11.
The assay was performed with a ready-to-use kit from Feldan Inc (Canada): the HumanLike Tyrosinase Assay kit (ref A021-a-001Kit).
The protocol was performed as described in the instructions for use of the manufacturer. Briefly, this kit is intended for the determination of human tyrosinase activity in presence of different inhibitors. The kit measures the conversion of L-Tyrosine into a dopachrome complex absorbing at 490 nm. The time course of the assay is 20 minutes, after which the results are analyzed and compared.
The compounds 11 and 16 have been tested at a final concentration of 1.12 mM.
The measured absorbances at 490 nm are reported in the table 5 and plotted in function of time in the FIG. 1.
Moreover for each compound the efficacy as tyrosinase inhibitor was calculated using the following formula: […]

- % Hydroquinone released ([1]; Ringer's solution pH 5.5 at 70° C., 24 H): 0.00%
- % Hydroquinone released ([1]; Ringer's solution pH 8.5 at 70° C., 24 H): 0.00%
- % Hydroquinone released ([1]; Synthetic perspiration at RT, 48 H): 0.00%
- % Hydroquinone released ([1]; Water at room temperature, 14 Days): 0.00%
- Hydroquinone release ([1]; whatever the tested conditions): never released
- OD at 490 nm (human tyrosinase; time 0 min): 0.0000
- OD at 490 nm (human tyrosinase; time 1 min): 0.0095
- OD at 490 nm (human tyrosinase; time 2 min): 0.0190
- OD at 490 nm (human tyrosinase; time 3 min): 0.0295
- OD at 490 nm (human tyrosinase; time 4 min): 0.0400
- OD at 490 nm (human tyrosinase; time 5 min): 0.0505
- OD at 490 nm (human tyrosinase; time 6 min): 0.0610
- OD at 490 nm (human tyrosinase; time 7 min): 0.0715
- OD at 490 nm (human tyrosinase; time 8 min): 0.0825
- OD at 490 nm (human tyrosinase; time 9 min): 0.0925
- OD at 490 nm (human tyrosinase; time 10 min): 0.1035
- OD at 490 nm (human tyrosinase; time 11 min): 0.1135
- OD at 490 nm (human tyrosinase; time 12 min): 0.1245
- OD at 490 nm (human tyrosinase; time 13 min): 0.1355
- OD at 490 nm (human tyrosinase; time 14 min): 0.1465
- OD at 490 nm (human tyrosinase; time 15 min): 0.1575
- OD at 490 nm (human tyrosinase; time 16 min): 0.1685
- OD at 490 nm (human tyrosinase; time 17 min): 0.1790
- OD at 490 nm (human tyrosinase; time 18 min): 0.1900
- OD at 490 nm (human tyrosinase; time 19 min): 0.2010
- OD at 490 nm (human tyrosinase; time 20 min): 0.2120
- Inhibitor efficacy (%) (human tyrosinase; Compound at 1.12 mM, T = 20 min): 13.5%
SMILES: Oc1ccc(OC2CCCCC2(F)F)cc1 (racemic) [Compound 11]
